Measurements taken from patent US7026270B2, “Biocidal compounds and their preparation” (Syngenta Crop Protection, Inc., priority 2002, dated 2006).

How the values were obtained:
Type in all cases: in vivo
[1] = tested on: Puccinia triticina (PUCCRT); assay: Foliar fungicidal test on wheat, 1 day protectant, Puccinia triticina; settings: 100 ppm foliar spray on wheat; inoculated one day after chemical application; banded assessment
Protocol: (§1) This Example illustrates the fungicidal properties of the compounds of formula (I). The compounds were tested against a variety of foliar fungal diseases of plants. The technique employed was as follows. Plants were grown on an artificial, cellulose based growing medium. The test compounds were individually diluted in reverse osmosis water to a final concentration of 100 ppm in water (that is, 1 mg of compound in a final volume of 10 ml) immediately before use. TWEEN 20 (at a final concentration of 0.05% by volume) was added with the water to improve retention of the spray deposit. TWEEN is a registered trade mark. The compounds were applied to the foliage of the test plants by spraying the plant to maximum droplet retention. […] After chemical application and inoculation, the plants were incubated under high humidity conditions (except those inoculated with Blumeria graminis f.sp. tritici) and then put into an appropriate environment to allow infection to proceed until the disease was ready for assessment. […] However, each individual disease was assessed after the same time period for all compounds. […] The disease level present (the percentage leaf area covered by actively sporulating disease) was assessed visually. For each treatment, the assessed values for all its replicates were meaned to provide mean disease values. Untreated control plants were assessed in the same manner. […]

[2] = tested on: Blumeria graminis f.sp. tritici (ERYSGT); assay: Foliar fungicidal test on wheat, 6 hour protectant, Blumeria graminis f.sp. tritici; settings: 100 ppm foliar spray on wheat; inoculated 6 hours after chemical application; banded assessment
Protocol: as §1

[3] = tested on: Stagonospora Nodorum (LEPTNO); assay: Foliar fungicidal test on wheat, 1 day protectant, Stagonospora Nodorum; settings: 100 ppm foliar spray on wheat; inoculated one day after chemical application; banded assessment
Protocol: as §1

Row | Structure (SMILES) | PRCO (Percentage Disease Reduction from Control) PUCCRT 1 day Protectant [1] | PRCO (Percentage Disease Reduction from Control) ERYSGT 6 hour Protectant [2] | PRCO (Percentage Disease Reduction from Control) LEPTNO 1 day Protectant [3]
1 | CO[C@@H]1CO[C@H]2[C@@H](O)[C@H](c3c[nH]c(=O)[nH]c3=O)O[C@@H]2[C@@H]1NC(N)=O (stereo in doubt) [(II), Malayamycin A] | 100 | 100 | 100
2 | NC(=O)N[C@H]1[C@H]2O[C@@H](c3c[nH]c(=O)[nH]c3=O)[C@H](O)[C@@H]2OC[C@H]1O (stereo in doubt) [(III), Desmethylmalayamycin A] | 100 | 0 | 99
